Results from paper PMC5430920 (Scientific Reports, 2017).

Legend:
MtOPRT [1] = biological target: T1, MtOPRT (Mycobacterium tuberculosis, UniProt P9WHK9)
T1 construct: gene pyrE

MtOPRT [2] = biological target: T1, MtOPRT; remark: listed apart in the source

T1 sequence (P9WHK9 whole entry): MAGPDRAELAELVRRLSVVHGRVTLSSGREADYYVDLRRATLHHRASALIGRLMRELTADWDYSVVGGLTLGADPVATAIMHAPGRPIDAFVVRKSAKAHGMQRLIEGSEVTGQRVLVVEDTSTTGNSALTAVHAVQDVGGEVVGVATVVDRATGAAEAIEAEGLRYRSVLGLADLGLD

Row | SMILES | X-ray crystal structure, 2.25 Å (MtOPRT [1]) | X-ray crystal structure, 1.90 Å (MtOPRT [2])
1 | O=P(O)(O)OC[C@H]1O[C@H](OP(=O)(O)OP(=O)(O)O)[C@H](O)[C@@H]1O [PRPP, α-D-5-phosphoribosyl-1-pyrophosphate] | A PRPP molecule could be unambiguously identified in the active site in both monomers | 
2 | O=P(O)(O)O [Pi, inorganic phosphate] |  | the inorganic phosphate occupies the same binding pocket of the 5-phosphate group of PRPP
